Like-named read-outs stand apart in the source and are kept apart here.

For orientation: Cmax means the maximum level reached in the sampled fluid or tissue. As a reminder, the Emax is the maximal effect, on the per cent scale that the assay sets.

Data set [1] addresses T1, TGFBR1 (Homo sapiens, UniProt P36897).
T1 sequence (P36897 34-503): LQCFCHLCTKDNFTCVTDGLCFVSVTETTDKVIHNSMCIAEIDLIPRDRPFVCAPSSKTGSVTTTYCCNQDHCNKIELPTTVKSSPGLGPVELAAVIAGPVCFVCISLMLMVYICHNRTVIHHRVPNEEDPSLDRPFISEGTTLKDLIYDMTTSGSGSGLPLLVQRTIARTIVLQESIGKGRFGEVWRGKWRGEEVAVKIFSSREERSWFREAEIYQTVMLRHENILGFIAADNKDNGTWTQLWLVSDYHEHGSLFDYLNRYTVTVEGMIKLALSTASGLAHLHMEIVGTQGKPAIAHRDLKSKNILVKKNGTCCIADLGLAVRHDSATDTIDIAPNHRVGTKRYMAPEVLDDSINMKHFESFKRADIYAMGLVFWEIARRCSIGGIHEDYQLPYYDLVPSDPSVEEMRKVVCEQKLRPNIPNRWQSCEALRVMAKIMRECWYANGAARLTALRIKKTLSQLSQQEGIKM
Description: Biochemical kinase profiling (33PanQinase radiometric assay).

Data set [2] deals with Py2T cells. Description: High-content microscopy EMT assay in TGFβ-treated Py2T breast cancer cells. The format is cell-based, murine. The following applies: Py2T.
For data set [3] the following is noted: mice, single dose of 50 mg/kg; cited from earlier work.
The target of data set [4] is TGFBR2 (Homo sapiens, UniProt P37173). Briefly: Biochemical kinase profiling (33PanQinase radiometric assay).
Sequence of TGFBR2 (P37173 23-567): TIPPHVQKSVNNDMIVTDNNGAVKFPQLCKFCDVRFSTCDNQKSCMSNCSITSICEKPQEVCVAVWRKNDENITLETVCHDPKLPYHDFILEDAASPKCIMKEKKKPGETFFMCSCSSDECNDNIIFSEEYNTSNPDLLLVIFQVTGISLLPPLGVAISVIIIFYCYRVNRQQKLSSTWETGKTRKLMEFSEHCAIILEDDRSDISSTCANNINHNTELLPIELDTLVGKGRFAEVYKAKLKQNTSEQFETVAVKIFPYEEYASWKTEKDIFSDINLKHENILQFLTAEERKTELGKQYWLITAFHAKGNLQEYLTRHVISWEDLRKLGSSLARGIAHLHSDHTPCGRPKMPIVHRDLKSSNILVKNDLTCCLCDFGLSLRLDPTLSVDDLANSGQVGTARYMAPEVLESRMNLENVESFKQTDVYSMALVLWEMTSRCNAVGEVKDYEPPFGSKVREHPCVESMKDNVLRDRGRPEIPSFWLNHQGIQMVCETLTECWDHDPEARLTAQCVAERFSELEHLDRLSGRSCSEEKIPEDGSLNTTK
Data set [5] relates to NMuMG cells. Description: High-content microscopy EMT screen in TGFβ-treated NMuMG cells (FA, SF, FN, cell count). It counts as cell-based, murine. To be noted: for Emax: read-out: Emax (maximal effect on cell count); for Emax (maximal effect on cell count): compared to reference 10 μM SB-431542 = 100%.
The conditions of data set [6]: cited from earlier work.
For data set [7] the following is noted: cited from earlier work. The source holds these as a separate data set.
Data set [8] deals with T2, c-KIT (Homo sapiens, UniProt P10721).
T2 construct: purchased ProQinase (Freiburg, Germany)
Description: Biochemical kinase profiling (33PanQinase radiometric assay). The following applies: ATP at apparent Km.

Data set [9] concerns the target T3, VEGFR3 (Homo sapiens, UniProt P35916).
T3 construct: purchased ProQinase (Freiburg, Germany)
The description is as above. The following applies: ATP at apparent Km.

Data set [10] has as its target FGFR4 (Homo sapiens, UniProt P22455). The description is as above. The following applies: read-out: FGFR4 IC50; ATP at apparent Km.
The target in data set [11] is SRC (Homo sapiens, UniProt P12931). Described as above. To be noted: read-out: SRC IC50; ATP at apparent Km.
Sequence of SRC (P12931 whole entry): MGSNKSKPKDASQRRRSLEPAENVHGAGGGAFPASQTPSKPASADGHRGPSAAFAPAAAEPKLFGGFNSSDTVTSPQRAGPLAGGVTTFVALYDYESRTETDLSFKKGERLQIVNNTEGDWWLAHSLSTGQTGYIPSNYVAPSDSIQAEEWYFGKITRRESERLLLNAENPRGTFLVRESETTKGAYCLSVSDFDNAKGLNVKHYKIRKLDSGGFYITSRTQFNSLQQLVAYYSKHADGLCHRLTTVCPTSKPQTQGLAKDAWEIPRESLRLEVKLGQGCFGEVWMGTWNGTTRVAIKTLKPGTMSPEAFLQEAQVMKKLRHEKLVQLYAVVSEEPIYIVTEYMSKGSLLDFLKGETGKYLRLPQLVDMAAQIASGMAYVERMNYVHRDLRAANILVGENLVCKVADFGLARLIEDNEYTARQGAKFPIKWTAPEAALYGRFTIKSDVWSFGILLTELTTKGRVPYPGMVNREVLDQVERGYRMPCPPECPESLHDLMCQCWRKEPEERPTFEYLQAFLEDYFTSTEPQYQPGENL
Data set [12] addresses T4, VEGFR1 (Homo sapiens, UniProt P17948).
T4 construct: purchased ProQinase (Freiburg, Germany)
The data set is described as above. To be noted: ATP at apparent Km.

Data set [13] addresses FGFR2 (Homo sapiens, UniProt P21802). The description is as above. The following applies: read-out: FGFR2 IC50; ATP at apparent Km.
For data set [14], the target named is FGFR3 (Homo sapiens, UniProt P22607). Described as above. To be noted: read-out: FGFR3 IC50; ATP at apparent Km.
For data set [15], the target named is PDGFRB (Homo sapiens, UniProt P09619). The description is as above. To be noted: read-out: PDGFRB IC50; ATP at apparent Km.
Sequence of PDGFRB (P09619 33-1106): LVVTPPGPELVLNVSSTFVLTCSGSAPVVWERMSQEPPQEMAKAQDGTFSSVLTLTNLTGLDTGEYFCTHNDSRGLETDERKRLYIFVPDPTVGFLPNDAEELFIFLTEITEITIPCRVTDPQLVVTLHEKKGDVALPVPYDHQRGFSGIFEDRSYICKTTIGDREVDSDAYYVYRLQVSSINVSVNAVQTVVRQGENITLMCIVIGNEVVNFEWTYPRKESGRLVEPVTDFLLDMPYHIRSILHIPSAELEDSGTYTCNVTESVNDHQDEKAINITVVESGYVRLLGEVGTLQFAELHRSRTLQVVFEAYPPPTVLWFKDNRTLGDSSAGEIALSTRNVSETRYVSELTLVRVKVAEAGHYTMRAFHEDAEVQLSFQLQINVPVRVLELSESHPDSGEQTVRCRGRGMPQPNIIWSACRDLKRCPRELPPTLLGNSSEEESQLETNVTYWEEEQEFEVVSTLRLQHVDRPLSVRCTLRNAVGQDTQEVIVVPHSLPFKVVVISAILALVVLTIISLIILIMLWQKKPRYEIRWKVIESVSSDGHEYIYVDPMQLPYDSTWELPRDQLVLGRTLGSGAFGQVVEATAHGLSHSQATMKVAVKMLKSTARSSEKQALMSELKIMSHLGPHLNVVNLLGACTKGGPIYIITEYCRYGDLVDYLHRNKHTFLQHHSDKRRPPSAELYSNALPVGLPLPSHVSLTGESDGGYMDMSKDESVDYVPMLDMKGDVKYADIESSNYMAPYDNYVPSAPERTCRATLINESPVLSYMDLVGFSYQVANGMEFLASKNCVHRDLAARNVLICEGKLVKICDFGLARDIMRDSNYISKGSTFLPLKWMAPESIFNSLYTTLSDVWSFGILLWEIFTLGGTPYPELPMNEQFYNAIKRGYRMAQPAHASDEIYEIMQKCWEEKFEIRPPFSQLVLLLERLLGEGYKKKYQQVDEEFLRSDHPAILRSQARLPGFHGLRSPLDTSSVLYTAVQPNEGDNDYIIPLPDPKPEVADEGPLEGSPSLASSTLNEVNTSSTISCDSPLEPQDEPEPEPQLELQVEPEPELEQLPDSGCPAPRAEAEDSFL
Data set [16] deals with PDGFRA (Homo sapiens, UniProt P16234). The description is as above. The following applies: read-out: PDGFRA IC50; ATP at apparent Km.
Sequence of PDGFRA (P16234 24-1089): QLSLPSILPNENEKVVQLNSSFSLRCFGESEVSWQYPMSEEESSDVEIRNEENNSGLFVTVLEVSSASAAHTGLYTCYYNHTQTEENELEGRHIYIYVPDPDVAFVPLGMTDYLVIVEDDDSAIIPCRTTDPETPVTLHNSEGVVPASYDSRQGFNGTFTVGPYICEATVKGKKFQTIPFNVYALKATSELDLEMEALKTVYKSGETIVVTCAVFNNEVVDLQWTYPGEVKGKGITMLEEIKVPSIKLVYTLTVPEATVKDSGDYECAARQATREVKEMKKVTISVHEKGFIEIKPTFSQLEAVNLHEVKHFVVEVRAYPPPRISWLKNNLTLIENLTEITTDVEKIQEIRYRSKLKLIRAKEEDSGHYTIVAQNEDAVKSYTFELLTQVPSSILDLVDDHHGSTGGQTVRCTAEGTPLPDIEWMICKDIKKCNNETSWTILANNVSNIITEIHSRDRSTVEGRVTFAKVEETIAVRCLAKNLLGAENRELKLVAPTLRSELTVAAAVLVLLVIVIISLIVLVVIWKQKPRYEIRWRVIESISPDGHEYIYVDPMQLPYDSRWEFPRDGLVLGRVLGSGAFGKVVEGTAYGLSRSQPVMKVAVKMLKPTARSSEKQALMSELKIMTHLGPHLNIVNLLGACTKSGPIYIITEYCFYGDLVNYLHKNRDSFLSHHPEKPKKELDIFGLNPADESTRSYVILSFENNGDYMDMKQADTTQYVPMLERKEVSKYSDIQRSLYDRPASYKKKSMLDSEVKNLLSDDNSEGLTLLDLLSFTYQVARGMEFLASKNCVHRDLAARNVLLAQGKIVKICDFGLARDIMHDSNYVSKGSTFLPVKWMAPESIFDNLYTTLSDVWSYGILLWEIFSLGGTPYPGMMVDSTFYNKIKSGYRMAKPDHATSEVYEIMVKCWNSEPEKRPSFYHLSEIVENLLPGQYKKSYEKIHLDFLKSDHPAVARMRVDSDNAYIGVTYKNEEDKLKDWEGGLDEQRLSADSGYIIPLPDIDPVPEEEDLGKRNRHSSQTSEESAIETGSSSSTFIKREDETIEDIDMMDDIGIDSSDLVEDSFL
Data set [17] addresses EGFR (Homo sapiens, UniProt P00533). Described as above. The following applies: read-out: EGFR IC50; ATP at apparent Km.
The target of data set [18] is FGFR1 (Homo sapiens, UniProt P11362). Described as above. To be noted: read-out: FGFR1 IC50; ATP at apparent Km.
Sequence of FGFR1 (P11362 22-822): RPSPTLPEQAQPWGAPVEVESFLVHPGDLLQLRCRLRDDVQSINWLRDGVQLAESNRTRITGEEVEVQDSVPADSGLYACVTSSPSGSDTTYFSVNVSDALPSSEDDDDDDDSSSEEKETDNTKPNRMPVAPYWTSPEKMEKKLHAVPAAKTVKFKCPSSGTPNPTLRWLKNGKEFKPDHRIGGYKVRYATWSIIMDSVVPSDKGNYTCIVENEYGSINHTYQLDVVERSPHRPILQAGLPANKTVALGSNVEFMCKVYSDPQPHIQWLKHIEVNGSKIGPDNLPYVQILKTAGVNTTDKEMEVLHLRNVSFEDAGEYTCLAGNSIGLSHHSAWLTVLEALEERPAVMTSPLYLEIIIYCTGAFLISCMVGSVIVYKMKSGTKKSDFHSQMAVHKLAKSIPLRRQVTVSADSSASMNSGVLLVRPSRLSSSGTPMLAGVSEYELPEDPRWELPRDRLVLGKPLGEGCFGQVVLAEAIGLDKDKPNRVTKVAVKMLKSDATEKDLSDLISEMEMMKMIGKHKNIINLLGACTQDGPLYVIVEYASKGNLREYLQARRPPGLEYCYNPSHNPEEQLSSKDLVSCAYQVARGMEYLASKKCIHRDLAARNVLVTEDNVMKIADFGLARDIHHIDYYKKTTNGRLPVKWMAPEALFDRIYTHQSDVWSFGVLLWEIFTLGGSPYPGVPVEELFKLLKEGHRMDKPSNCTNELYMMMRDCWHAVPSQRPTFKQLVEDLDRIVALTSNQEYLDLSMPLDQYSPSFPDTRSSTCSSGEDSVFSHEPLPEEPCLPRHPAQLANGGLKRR
Data set [19] has as its target T5, VEGFR2 (Homo sapiens, UniProt P35968).
T5 construct: purchased ProQinase (Freiburg, Germany)
The description is as above. The following applies: ATP at apparent Km.

Where [20] appears, read: Mus musculus, 96 h, NMuMG, TGFβ1 2 ng/ml plus compound, 4 days, parameter decreased by 50%, read-out: FA IC50 (focal adhesion formation).
The mark [21] stands for this setting: Mus musculus, 96 h, NMuMG, TGFβ1 2 ng/ml plus compound, 4 days, parameter decreased by 50%, read-out: FN IC50 (fibronectin patch formation).
Setting [22] is: Mus musculus, 96 h, NMuMG, TGFβ1 2 ng/ml plus compound, 4 days, parameter decreased by 50%, read-out: SF IC50 (stress fibers).
[23] abbreviates: Mus musculus, NMuMG, cell count decreased by 50% compared to DMSO control, read-out: Tox IC50.
Setting [24] is: Mus musculus, NMuMG, mean of IC50 values obtained for FA, SF, FN, read-out: EMT (FA/SF/FN) combined IC50.
Setting [25] is: Mus musculus, read-out: CCI IC50 (cell count increase).
The mark [26] stands for this setting: read-out: TGFBR2 IC50, ATP at apparent Km.
[27] abbreviates: NMuMG, TGFβ1 2 ng/ml plus compound, 4 days, parameter decreased by 50%, read-out: FA IC50 (focal adhesion formation).
The mark [28] stands for this setting: NMuMG, TGFβ1 2 ng/ml plus compound, 4 days, parameter decreased by 50%, read-out: FN IC50 (fibronectin patch formation).
The mark [29] stands for this setting: NMuMG, TGFβ1 2 ng/ml plus compound, 4 days, parameter decreased by 50%, read-out: SF IC50 (stress fibers).
The mark [30] stands for this setting: NMuMG, cell count decreased by 50% compared to DMSO control, read-out: Tox IC50.
[31] abbreviates: NMuMG, cell count increased by 50% compared to 100% with 10 μM SB-431542, read-out: CCI IC50 (cell count increase).
Setting [32] is: NMuMG, mean of IC50 values obtained for FA, SF, FN, read-out: EMT (FA/SF/FN) combined IC50.

Sequence of FGFR4 (P22455 22-802): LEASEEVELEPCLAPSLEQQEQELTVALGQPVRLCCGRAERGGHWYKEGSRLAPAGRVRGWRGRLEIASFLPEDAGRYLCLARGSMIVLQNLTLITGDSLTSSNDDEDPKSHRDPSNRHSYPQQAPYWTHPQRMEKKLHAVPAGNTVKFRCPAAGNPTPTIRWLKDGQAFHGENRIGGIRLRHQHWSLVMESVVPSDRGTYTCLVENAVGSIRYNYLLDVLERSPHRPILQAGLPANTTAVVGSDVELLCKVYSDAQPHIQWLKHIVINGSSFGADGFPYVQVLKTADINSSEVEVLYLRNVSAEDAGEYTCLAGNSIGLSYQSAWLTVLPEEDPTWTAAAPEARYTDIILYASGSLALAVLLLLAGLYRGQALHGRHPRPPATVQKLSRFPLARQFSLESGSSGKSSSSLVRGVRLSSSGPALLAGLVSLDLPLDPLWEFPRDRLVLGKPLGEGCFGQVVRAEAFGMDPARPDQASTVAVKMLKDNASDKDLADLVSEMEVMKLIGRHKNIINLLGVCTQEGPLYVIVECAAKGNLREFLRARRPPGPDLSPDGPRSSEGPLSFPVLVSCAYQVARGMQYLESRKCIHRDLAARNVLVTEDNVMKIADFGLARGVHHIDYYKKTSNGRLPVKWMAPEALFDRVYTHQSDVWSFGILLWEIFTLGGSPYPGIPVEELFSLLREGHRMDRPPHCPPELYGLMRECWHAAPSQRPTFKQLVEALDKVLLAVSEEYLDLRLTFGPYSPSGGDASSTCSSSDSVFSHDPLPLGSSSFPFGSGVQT

As to `COC(=O)c1ccc2c(c1)NC(=O)/C2=C(\Nc1ccc(N(C)C(=O)CN2CCN(C)CC2)cc1)c1ccccc1` [Nintedanib], the IC50 in data set [1] is 505 nM; in data set [2] (Mus musculus, cell count decreased by 50% compared to DMSO control, read-out: Tox IC50), 502 nM; in data set [4], more than 10 µM; in data set [5] (setting [20]), 2630 nM; in data set [5] (setting [21]), 1180 nM; in [5] (setting [22]), 5060 nM. For the same compound, the IC50 in data set [5] (setting [23]) was determined as 23000 nM; in data set [5] (setting [24]) it was 2960 nM; in data set [5] (setting [25]), 1110 nM. For the same compound, the “FA IC50 (focal adhesions)” value in data set [2] (TGFβ plus compound, 4 days) is “n.m”. Moreover, in [2] (TGFβ plus compound, 4 days), the “FN IC50 (fibronectin patches)” value was “n.m”. For the same compound, the “SF IC50 (stress fibers)” value in [2] (TGFβ plus compound, 4 days) is “n.m”. In [2] (compared to reference 10 μM SB-431542 = 100%), the “Emax (maximal effect on cell count)” value is recorded as “n.m”. Also, the peak concentration (Cmax) in data set [3] was approximately 1000 nM. In addition, the maximum response (Emax) in [5] (Mus musculus) was found to be 26.2%.

As for `Cc1ccc(Nc2nccc(N(C)c3ccc4c(C)n(C)nc4c3)n2)cc1S(N)(=O)=O` [Pazopanib], in [6], the “steady state blood levels required to be active in patients” value is on record as “at least 40 μM”. Besides, the IC50 in [5] (setting [20]) is 8030 nM; in [5] (setting [21]), 3950 nM; in data set [5] (setting [22]), 7300 nM; in data set [5] (Mus musculus, combined FA/SF/FN, read-out: IC50 for blocking EMT in NMuMG cells), 6400 nM; in data set [5] (setting [23]) it was 15700 nM; in data set [5] (setting [24]), 6430 nM. Besides, in [5] (setting [25]), the IC50 came out at 1080 nM. Also, in [5] (Mus musculus), the Emax is 17.6%. For the same compound, in [7], the plasma protein binding result is “above 99.9%”.

Regarding `Cc1cccc(-c2[nH]ncc2-c2ccc3ncccc3n2)n1` [RepSox], the IC50 in [8] is 5.24 µM; in data set [9] it was 1640 nM; in data set [10], more than 10 µM; in [4] (setting [26]), 3.07 µM; in [11] it was 6.11 µM; in data set [12], 1080 nM. The IC50 was 4.76 µM in data set [13]; more than 10 µM in data set [14]; 4.37 µM in [15]; more than 10 µM in data set [16]; 47 nM in [5] (setting [27]); 44 nM in [5] (setting [28]). Moreover, the IC50 in data set [5] (setting [29]) is 55 nM; in data set [5] (setting [30]), more than 3000 nM; in [5] (setting [31]) it was 88 nM; in data set [5] (setting [32]), 48.7 nM; in [17], more than 10 µM; in data set [18], more than 10 µM. For the same compound, the “Emax (maximal effect on cell count)” value in data set [5] (NMuMG) turned out to be 100%.

Turning to `Cc1cccc(-c2[nH]c(C(C)(C)C)nc2-c2ccc3nccnc3c2)n1` [SB-525334], the IC50 in data set [19] is 3.52 µM; in data set [8], more than 10 µM; in [9] it was more than 10000 nM; in [10], more than 10 µM; in [4] (setting [26]), more than 10 µM; in [11], 5.62 µM. Further, the IC50 in data set [12] was less than 0.3 nM; in data set [13], more than 10 µM; in data set [14], more than 10 µM; in data set [15] it was more than 10 µM; in data set [16], more than 10 µM; in [5] (setting [27]), 276 nM. For the same compound, the IC50 was 261 nM in data set [5] (setting [28]); 243 nM in data set [5] (setting [29]); more than 3000 nM in data set [5] (setting [30]); 380 nM in data set [5] (setting [31]); 260 nM in data set [5] (setting [32]); more than 10 µM in data set [17]. In addition, the IC50 in data set [18] was more than 10 µM. In data set [5] (NMuMG), the “Emax (maximal effect on cell count)” value is listed as 100%.

Values taken from paper PMC5041959, “A high-content EMT screen identifies multiple receptor tyrosine kinase inhibitors with activity on TGFβ receptor” (Oncotarget, 2016).
